Data published in a compilation of properties of binary mixtures (doi:10.1021/acs.jpcb.9b04724).

Experiment: xn = mol fraction of the nth substance listed
Conditions: 101 kPa

CC[n+]1ccn(C)c1.N#C[N-]C#N + CCCC[N+](C)(CCCC)CCCC.N#C[N-]C#N
x1 = 1
Conditions	viscosity [mPa·s]
293.15 K	17.41
313.15 K	10.05
333.15 K	6.65

CCCC[N+](C)(CCCC)CCCC.N#C[N-]C#N + CC[n+]1ccn(C)c1.N#C[N-]C#N
viscosity [mPa·s]
Conditions	293.15 K	303.15 K	313.15 K	323.15 K	333.15 K	343.15 K	353.15 K
x2 = 0	498	239	127.3	74.9	47.6	32	22.6
x2 = 0.2114	201	–	65.2	42.1	28.7	–	–
x2 = 0.3975	101.3	60.6	39.2	26.8	–	14.44	–
x2 = 0.6047	50.5	–	22.87	16.69	12.65	10.13	8.18
x2 = 0.8003	28.3	19.8	14.56	11.15	9.11	7.26	5.93
